Source: publication PMC9048407 (Molecular microbiology, 2021)

Experiments:
[1] = target: T1, BplA (Ca 0589) (Clostridium acetobutylicum, UniProt Q97LH2); assay: TLC of […]Bio-5′-AMP; assay type: biochemical; details: 25 uM biotin, 5 uM ATP, 5.5 mM MgCl2, pH 8.0, room temperature; acceptor B. subtilis AccB-86
T1 sequence (Q97LH2 1-270): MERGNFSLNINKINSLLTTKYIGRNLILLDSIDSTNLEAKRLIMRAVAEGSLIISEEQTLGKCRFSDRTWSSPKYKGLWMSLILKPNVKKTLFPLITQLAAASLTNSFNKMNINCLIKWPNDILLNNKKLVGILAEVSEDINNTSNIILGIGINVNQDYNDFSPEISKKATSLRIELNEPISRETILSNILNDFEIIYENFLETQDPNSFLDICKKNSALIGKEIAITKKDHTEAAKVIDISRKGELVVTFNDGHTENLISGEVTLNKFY

[2] = target: BirA′ (protein encoded by Clostridium acetobutylicum gene Ca 0212), purified (Clostridium acetobutylicum (strain ATCC 824)); assay: SEC

| Compound | TLC of [32P]Bio-5′-AMP; AccB-86 native gel shift; MS/MS of product [1] | stoichiometry N [2] |
| --- | --- | --- |
| O=C(O)CCCC[C@@H]1SC[C@@H]2NC(=O)N[C@@H]21 [biotin] | In reactions with BplA, formation of the Bio-5′-AMP intermediate was detected upon biotin addition |  |
| BirA′ (protein encoded by Clostridium acetobutylicum gene Ca 0212), purified (natural protein) |  | 2 |
